Laboratory results: publication PMC6290777, “Inhalation of the prodrug PI3K inhibitor CL27c improves lung function in asthma and fibrosis” (Nature Communications, 2018)

What was measured:
[1] = test system: in vitro differentiated Treg; assay: Treg viability assessment; assay type: cell-based, C57BL/6 mice; conditions: 72 h; tested 1, 3, 10 or 30 uM
Protocol: Cells were obtained from Lymph nodes and spleen from naive C57BL/6. Cells were then purified with CD4 T cell isolation Kit and with CD25 biotin and microbeads anti-biotin. Purified cells were cultured for 72 h in a 96-wells plate with anti-CD3/CD28 coated (1 ug/ml), TGF-B (1 ng/ml), or Cl27C (1, 3, 10 or 30 uM). After 72 h, the cells were harvested and stained with PBS (2% Bovine serum fetal) and anti-CD4 and fixable viability dye for 10 min. Cells were then fixed and permeabilized with intracellular fixation and permeabilization buffer set (eBioscience). Anti-FoxP3 was used for […]. After the staining, the cells were acquired with FACS VERSE machine and analyzed by FlowJo X software. […]
obtained at 200 × magnification were analyzed using the software Image -J (NIH, USA). Results were expressed as extracellular matrix deposition area (pixels). […]
Akt phosphorylation was measured by western blot as described in the “Western blot analysis” in […]
Cells were obtained from Lymph nodes and spleen from naive C57Bl/6J and purified with CD4 T cell isolation Kit (Miltenyi Biotec #130-104-454) and with CD25 biotin (eBioscience #13-0252-81) and microbeads anti-biotin (Miltenyi Biotec #130-090-485). […] Positive stained cells were analyzed with FlowJo X software after removal of doublets events and debris through FSC-A/FSC-H gating.

[2] = test system: bleomycin-induced lung fibrosis; assay: Bleomycin-induced lung injury and fibrosis in mice; assay type: in vivo, C57BL/6J mice
Protocol: Eight-to-ten-week-old C57BL/6J males were used in bleomycin-induced lung injury and fibrosis model[10],[51]. Briefly, a single 40 µl injection containing 3.75 or 2 mg/kg of bleomycin sulfate (Sigma Aldrich-MERCK #B1141000) diluted in PBS or PBS only (vehicle) was instilled intratracheally. […]
Levels of hydroxyproline in lung tissues were measured using the Hydroxyproline Assay kit (Sigma-Audrich, St. Louis, MO, USA) according to the manufacturer’s instructions. Briefly, 10 mg of pulverized frozen lungs homogenized in 100 µL of concentrated hydrochloric acid (HCl, 12 M), and hydrolyzed at 120 °C for 3 h. Then, 5 µL of each sample in triplicate were used to the assay. […] The absorbance was obtained at 560 nm. The final results are expressed as concentration of hydroxyproline in µg/mL.
The left lung was removed and fixed in 4% neutral phosphate-buffered formalin (pH 7.4)[10]. The tissues were dehydrated gradually in ethanol, embedded in paraffin, cut into 4 µm sections, stained with H&E, Gomori’s trichrome and periodic acid schiff (PAS), and examined under light microscopy by a pathologist in a double blinded manner. Images of lung sections were captured with a digital camera (Optronics DEI-470) connected to a microscope (Olympus IX70) with a magnification of ×40 or ×100. Inflammation was scored according to modification of existing protocols[53] and to the histopathology criteria reported in Supplementary Table 4. […]
For quantitative measurements, total RNA was extracted from lung tissues using the High Pure RNA isolation kit (Invitrogen, Life Technologies, Paisley, UK) and reverse-transcribed with the Superscript first-strand synthesis system kit (Invitrogen, Life Technologies, Paisley, UK). Specific mRNA sequences were quantified by real-time PCR with primer/probe combinations based on the Roche Universal ProbeLibrary Set, Mouse (Tgfb1 probe: #72, Ctgf probe: #71, Col1a1 probe: #15 and Mmp2 probe #49). Primer sequences are listed in Supplementary Table 5.

[3] = late treatment, day 17 to day 27
[4] = moderate model, bleomycin 2 mg/kg, aerosolized CL27c 2 mg/ml
[5] = moderate model, therapeutic aerosolized CL27c
[6] = severe model, bleomycin 3.75 mg/kg

COC(=O)c1cccc(Cn2cc(-c3cccc4c(=O)cc(N5CCOCC5)[nH]c34)nn2)c1 [CL27c]
concentration with toxic effects on Treg viability [1]: 30 µM
Akt phosphorylation in lung protein extracts and sections ([2]; bleomycin model): blunted the increase of Akt phosphorylation
lung function [2, 3]: improved lung function
mortality [2, 3]: significantly blunts mortality
fibrotic collagen deposition ([2]; late treatment, day 17 to day 27 after bleomycin 2 mg/kg): still effective in reducing fibrotic collagen deposition
lung elasticity (pulmonary compliance) restored, relative to controls ([2]; moderate model): 75 % of controls
lung resistance ([2]; moderate model): reduce the gain in lung resistance almost to the level of healthy mice
survival ([2]; moderate model, 22 days after instillation, bleomycin alone 50% mortality): 100%
fibrotic remodeling (Ashcroft score, collagen content) ([2]; moderate model, bleomycin 2 mg/kg): significantly reduce fibrotic remodeling
abundance of active TGF-β1 [2, 4]: significantly decreased the abundance of active TGF-β1
mRNA levels of Tgfb1, Ctgf, Col1a1, Mmp2 [2, 4]: attenuated mRNA levels of Tgfb1
neutrophil-derived MPO levels in the lungs [2, 4]: markedly reduced
airway inflammation (BALF cells) ([2]; moderate model, bleomycin 2 mg/kg, aerosolized CL27c 2 mg/ml day 10 to 21): markedly reduced airway inflammation
histopathological inflammation score ([2]; moderate model, day 22): significantly attenuated in airways, vasculature, and parenchyma
TLC, inspiratory capacity, forced vital capacity, and FEV [2, 5]: significant recovery back to normal levels
pressure–volume curve [2, 5]: significantly improved the pressure–volume curve
hydroxyproline deposition in lungs [2, 6]: significantly decreased hydroxyproline deposition in lungs
infiltration of macrophages and neutrophils [2, 6]: reduced infiltration of either macrophages or neutrophils
mortality within 21 days ([2]; severe model, bleomycin 3.75 mg/kg, CL27c could not protect): 100%
